According to article doi:10.1101/2022.12.25.521902v1 (biorxiv, 2022):

System: MsC17OMT (MsOMT1)
Test: LC-MS/MS methyltransferase assay, Michaelis-Menten fit
Type: biochemical, Mitragyna speciosa
Conditions: 100 μM SAM, Tris-HCl pH 7.5, 30 °C, 2 min

Km [µM]	Compound
5.3	C/C=C1/CN2CCc3c([nH]c4ccccc34)[C@@H]2C[C@@H]1/C(=C/O)C(=O)OC [compound 3, 19E-geissoschizine]
12.8	C/C=C1\CN2CCc3c([nH]c4ccccc34)[C@@H]2C[C@@H]1/C(=C/O)C(=O)OC [compound 4, 19Z-geissoschizine]
